Measured values reported in the PolyMetriX glass transition set.
± gives the standard deviation of the reports.

Legend:
[1] = not given; remark: listed apart in the source

*C=Cc1cc(OC)c(*)cc1OCC(CC)CCCC (repeat unit)
glass transition temperature: 66.00 °C

*c1ccc2c(c1)C(CCCCCCCC)(CCCCCCCC)c1cc(-c3ccc(-c4ccc(-c5ccc(*)s5)c5cc(-c6ccccc6)c(-c6ccccc6)nc45)s3)ccc1-2 (repeat unit)
glass transition temperature: 142.00 °C

*c1ccc2c3ccc(-c4sc(-c5ccc(-c6cc(CCCCCC)c(*)s6)c6nsnc56)cc4CCCCCC)cc3n(C(CCCCCCCC)CCCCCCCC)c2c1 (repeat unit)
glass transition temperature: 74.00 °C

*c1ccc(-c2ccc(OCCCC)c(-c3cc(*)ccc3OCCCC)c2)cc1 (repeat unit)
glass transition temperature: 164.00 °C

*c1ccc(-c2ccc(OCCCCCCCCCC)c(-c3cc(*)ccc3OCCCCCCCCCC)c2)cc1 (repeat unit)
glass transition temperature: 58.00 °C

*Oc1ccc(C(c2ccc(Oc3ccc4c(c3)C(=O)N(c3ccc(Cc5ccc(N6C(=O)c7ccc(*)cc7C6=O)cc5)cc3)C4=O)cc2)(C(F)(F)F)C(F)(F)F)cc1 (repeat unit)
glass transition temperature [1]: 227.00 ± 4.2 °C

*CC(N1C(=O)c2ccccc2C1=O)n1c(=O)c2cc3c(=O)n(*)c(=O)c3cc2c1=O (repeat unit)
glass transition temperature [1]: 190.00 °C

*c1ccc(-c2ccc(N3C(=O)c4cc5c(cc4C3=O)C(C(F)(F)F)(C(F)(F)F)c3cc4c(cc3O5)C(=O)N(*)C4=O)cc2C(F)(F)F)c(C(F)(F)F)c1 (repeat unit)
glass transition temperature [1]: 420.00 °C

*c1ccc(-c2ccc(N3C(=O)c4cc5c(cc4C3=O)C(C(F)(F)F)(C(F)(F)F)c3cc4c(cc3O5)C(=O)N(*)C4=O)cc2OC(F)(F)F)c(OC(F)(F)F)c1 (repeat unit)
glass transition temperature [1]: 375.00 °C

*c1ccc(-c2ccc(N3C(=O)c4cc5c(cc4C3=O)C(c3ccccc3)(C(F)(F)F)c3cc4c(cc3O5)C(=O)N(*)C4=O)cc2OC(F)(F)F)c(OC(F)(F)F)c1 (repeat unit)
glass transition temperature [1]: 400.00 °C

*c1cccc(Oc2ccc(P(=O)(c3ccccc3)c3ccc(Oc4ccc(-n5c(=O)c6cc7c(=O)n(*)c(=O)c7cc6c5=O)cc4)cc3)cc2)c1 (repeat unit)
glass transition temperature [1]: 254.00 °C

*c1ccc2c(c1)C(=O)N(c1c(F)c(F)c(-c3c(F)c(F)c(N4C(=O)c5ccc(C(*)(C(F)(F)F)C(F)(F)F)cc5C4=O)c(F)c3F)c(F)c1F)C2=O (repeat unit)
glass transition temperature [1]: 374.50 ± 15 °C

*c1ccc2c(c1)C(=O)N(c1c(F)c(F)c(N3C(=O)c4ccc(C(*)(C(F)(F)F)C(F)(F)F)cc4C3=O)c(F)c1F)C2=O (repeat unit)
glass transition temperature [1]: 375.50 ± 6.4 °C

*c1ccc2c(c1)C(=O)N(c1cc(C(F)(F)F)c(N3C(=O)c4ccc(C(*)(C(F)(F)F)C(F)(F)F)cc4C3=O)cc1C(F)(F)F)C2=O (repeat unit)
glass transition temperature [1]: 365.00 °C

*c1ccc2c(c1)C(=O)N(c1cc(N3C(=O)c4ccc([Si](*)(C)C)cc4C3=O)cc(C(F)(F)F)c1)C2=O (repeat unit)
glass transition temperature [1]: 263.00 °C

*c1ccc2c(c1)C(=O)N(c1ccc(-c3ccc(N4C(=O)c5ccc(C(*)(C(F)(F)F)C(F)(F)F)cc5C4=O)cc3Br)c(Br)c1)C2=O (repeat unit)
glass transition temperature [1]: 329.00 °C

*c1ccc2c(c1)C(=O)N(c1ccc(-c3ccc(N4C(=O)c5ccc(C(*)(C(F)(F)F)C(F)(F)F)cc5C4=O)cc3-c3ccc(C(F)(F)F)cc3)c(-c3ccc(C(F)(F)F)cc3)c1)C2=O (repeat unit)
glass transition temperature [1]: 283.00 °C

*c1ccc2c(c1)C(=O)N(c1ccc(-c3ccc(N4C(=O)c5ccc(C(*)(C(F)(F)F)C(F)(F)F)cc5C4=O)cc3-c3ccc(C)cc3)c(-c3ccc(C)cc3)c1)C2=O (repeat unit)
glass transition temperature [1]: 286.00 °C

*c1ccc2c(c1)C(=O)N(c1ccc(-c3ccc(N4C(=O)c5ccc(C(*)(C(F)(F)F)C(F)(F)F)cc5C4=O)cc3-c3ccc(-c4ccccc4)cc3)c(-c3ccc(-c4ccccc4)cc3)c1)C2=O (repeat unit)
glass transition temperature [1]: 285.00 °C

*c1ccc2c(c1)C(=O)N(c1ccc(-c3ccc(N4C(=O)c5ccc(C(*)(C(F)(F)F)C(F)(F)F)cc5C4=O)cc3I)c(I)c1)C2=O (repeat unit)
glass transition temperature [1]: 319.00 °C

*c1ccc2c(c1)C(=O)N(c1ccc(Oc3c(F)c(F)c(Oc4ccc(N5C(=O)c6ccc(C(*)(C(F)(F)F)C(F)(F)F)cc6C5=O)cc4)c(F)c3F)cc1)C2=O (repeat unit)
glass transition temperature [1]: 243.80 °C

*C(=O)Oc1ccc2ccccc2c1-c1c(OC(=O)c2ccc3c(c2)C(=O)N(c2ccc(Oc4ccc(N5C(=O)c6ccc(*)cc6C5=O)cc4)cc2)C3=O)ccc2ccccc12 (repeat unit)
glass transition temperature [1]: 257.00 °C

*Oc1ccc2ccccc2c1-c1c(Oc2ccc3c(c2)C(=O)N(c2ccc(Oc4ccc(N5C(=O)c6ccc(*)cc6C5=O)cc4)cc2)C3=O)ccc2ccccc12 (repeat unit)
glass transition temperature [1]: 274.00 °C

*C(=O)c1ccc2c(c1)C(=O)N(c1cccc(Oc3ccc(P(=O)(c4ccccc4)c4ccc(Oc5ccc(N6C(=O)c7ccc(*)cc7C6=O)cc5)cc4)cc3)c1)C2=O (repeat unit)
glass transition temperature [1]: 232.00 °C

*C(=O)c1ccc2c(c1)C(=O)N(c1cc(N3C(=O)c4ccc(*)cc4C3=O)ccc1OCC(F)(F)C(F)(F)C(F)(F)C(F)(F)C(F)(F)C(F)(F)C(F)(F)F)C2=O (repeat unit)
glass transition temperature [1]: 223.00 °C

*c1ccc2c(c1)C(=O)N(c1ccc(OCC(F)(F)C(F)(F)C(F)(F)C(F)(F)C(F)(F)C(F)(F)F)c(N3C(=O)c4ccc(C(*)(C(F)(F)F)C(F)(F)F)cc4C3=O)c1)C2=O (repeat unit)
glass transition temperature [1]: 228.00 °C

*C(=O)c1ccc2c(c1)C(=O)N(c1cc(N3C(=O)c4ccc(*)cc4C3=O)ccc1OCC(F)(F)C(F)(F)C(F)(F)C(F)(F)C(F)(F)C(F)(F)F)C2=O (repeat unit)
glass transition temperature [1]: 229.00 °C

*C(=O)c1ccc2c(c1)C(=O)N(c1cc(N3C(=O)c4ccc(*)cc4C3=O)ccc1OCC(F)(F)C(F)(F)C(F)(F)F)C2=O (repeat unit)
glass transition temperature [1]: 262.00 °C

*c1ccc2c(c1)C(=O)N(c1ccc(P(=O)(c3ccccc3)c3ccc(N4C(=O)c5ccc(C(*)(C(F)(F)F)C(F)(F)F)cc5C4=O)cc3)cc1)C2=O (repeat unit)
glass transition temperature [1]: 345.00 °C

*Oc1ccc2c(c1)C(=O)N(c1ccc(P(=O)(c3ccccc3)c3ccc(N4C(=O)c5ccc(*)cc5C4=O)cc3)cc1)C2=O (repeat unit)
glass transition temperature [1]: 311.00 °C

*C(=O)c1ccc2c(c1)C(=O)N(c1ccc(C(=O)c3ccccc3N3C(=O)c4ccc(*)cc4C3=O)cc1)C2=O (repeat unit)
glass transition temperature [1]: 289.00 °C

*c1c(C)c(C)c(N2C(=O)c3cc4c(cc3C2=O)C(c2ccccc2)(C(F)(F)F)c2cc3c(cc2O4)C(=O)N(*)C3=O)c(C)c1C (repeat unit)
glass transition temperature [1]: 394.00 °C

*C(=O)c1ccc2c(c1)C(=O)N(c1c(C)cc(CC)c(N3C(=O)c4ccc(*)cc4C3=O)c1CC)C2=O (repeat unit)
glass transition temperature [1]: 385.00 °C

*c1cccc2c1C(=O)N(c1ccc(C3(c4ccc(N5C(=O)c6cccc(*)c6C5=O)c(C)c4)CCCCC3)cc1C)C2=O (repeat unit)
glass transition temperature [1]: 302.50 ± 3.5 °C

*Sc1ccc2c(c1)C(=O)N(c1cc(Cc3ccc(N4C(=O)c5cccc(*)c5C4=O)c(C)c3)ccc1C)C2=O (repeat unit)
glass transition temperature [1]: 257.50 ± 11 °C

*C1=C(Cl)C(=O)N(c2ccc(Cc3ccc(N4C(=O)C(Cl)=C(Oc5c(Cl)cc(C(C)(C)c6cc(Cl)c(*)c(Cl)c6)cc5Cl)C4=O)cc3)cc2)C1=O (repeat unit)
glass transition temperature [1]: 200.00 °C

*Sc1ccc2c(c1)C(=O)N(c1ccc(N3C(=O)c4cccc(*)c4C3=O)cc1)C2=O (repeat unit)
glass transition temperature [1]: 319.50 ± 0.7 °C

*Sc1cccc2c1C(=O)N(c1ccc(N3C(=O)c4cccc(*)c4C3=O)cc1)C2=O (repeat unit)
glass transition temperature [1]: 330.00 °C

*Sc1cccc2c1C(=O)N(c1ccc(Oc3ccc(N4C(=O)c5cccc(*)c5C4=O)cc3)cc1)C2=O (repeat unit)
glass transition temperature [1]: 287.00 ± 8.5 °C

*C1=C(Cl)C(=O)N(c2cccc(N3C(=O)C(Cl)=C(Oc4ccc(C(C)(C)c5ccc(*)cc5)cc4)C3=O)c2)C1=O (repeat unit)
glass transition temperature [1]: 163.00 °C

*Oc1cccc(C(=O)c2ccc(Oc3ccc4c(c3)C(=O)N(c3cccc(N5C(=O)c6ccc(*)cc6C5=O)c3)C4=O)cc2)c1 (repeat unit)
glass transition temperature [1]: 239.00 °C

*c1ccc2c(c1)C(=O)N(c1cccc(Oc3cccc(N4C(=O)c5cccc(*)c5C4=O)c3)c1)C2=O (repeat unit)
glass transition temperature [1]: 245.00 ± 1.5 °C

*Oc1ccc2c(c1)C(=O)N(c1ccc(Oc3ccc(Oc4cccc(N5C(=O)c6cccc(*)c6C5=O)c4)cc3)cc1)C2=O (repeat unit)
glass transition temperature [1]: 249.00 ± 5.7 °C

*Oc1cccc2c1C(=O)N(c1ccc(Oc3ccc(Oc4cccc(N5C(=O)c6cccc(*)c6C5=O)c4)cc3)cc1)C2=O (repeat unit)
glass transition temperature [1]: 263.00 °C

*C(=O)c1ccc2c(c1)C(=O)N(c1ccccc1Oc1ccccc1N1C(=O)c3ccc(*)cc3C1=O)C2=O (repeat unit)
glass transition temperature [1]: 289.00 °C

*c1cccc(C(c2cccc(-n3c(=O)c4cc5c(=O)n(*)c(=O)c5cc4c3=O)c2)(C(F)(F)F)C(F)(F)F)c1 (repeat unit)
glass transition temperature [1]: 296.00 °C
